These results are taken from patent US10508105B2, “Indazole compounds as mGluR4 allosteric potentiators, compositions, and methods of treating neurological dysfunction” (Vanderbilt University, priority 2017, dated 2019).

One data set is described as follows: Brain-Plasma Kp. The format is in vivo. The following applies: rat, brain and plasma.
The next data set concerns the target human mGlu4 (Homo sapiens (Human), UniProt Q14833). Nature of the data set: mGlu4 PAM assay in human mGlu4/Gqi5 cells with ~EC20 glutamate (Hamamatsu FDSS). The format is cell-based. The conditions noted are these: ~EC20 concentration of glutamate. As to the method:
The disclosed compounds and compositions can be evaluated for their ability to act as a potentiatior of metabotropic glutamate receptor activity, in particular mGluR4 activity, by any suitable known methodology known in the art. For example, Chinese Hamster Ovary (CHO) cells transfected with human mGluR4 or HEK cells co-transfected with rat mGluR4 and the G-protein regulated Inwardly Rectifying Potassium channel (GIRK) were plated in clear bottom assay plates for assay in a Hamamatsu FDSS Fluorometric Plate Reader. The cells were loaded with either a Ca2+-sensitive fluorescent dye or the thallium responsive dye and the plates were washed and placed into a suitable kinetic plate reader. For human mGluR4 assays, a fluorescence baseline was established for 3-5 seconds, the disclosed compounds were then added to the cells, and the response in cells was measured. Approximately two and a half minutes later, a concentration of mGluR4 orthosteric agonist (e.g. glutamate, L-AP4, or L-SOP) eliciting approximately 20% (EC20) of the maximal agonist response was added to the cells, and the response was measured. Two minutes later, a concentration of mGluR4 agonist (e.g. glutamate, L-AP4, or L-SOP) eliciting 80% (EC80) of the maximal agonist response was added to the cells, and the response was measured. For rat mGluR4/GIRK experiments, a baseline was established for approximately five seconds, disclosed compounds were added, and either an EC20 or EC80 concentration of agonist was added approximately two and one half minutes later.
The above described assay operated in two modes. In the first mode, a range of concentrations of the disclosed compounds are added to cells, followed by a single fixed concentration of agonist. If the compound acts as a potentiatior, an EC50 value for potentiation and a maximum extent of potentiation by the compound at this concentration of agonist is determined by non-linear curve fitting. If the compound acts as an antagonist, an IC50 value is determined by non-linear curve fitting. In the second mode, several fixed concentrations of the disclosed compounds are added to various wells on a plate, followed by a range in concentrations of agonist for each concentration of disclosed compound. The EC50 values for the agonist at each concentration of compound are determined by non-linear curve fitting. A decrease in the EC50 value of the agonist with increasing concentrations of the sample compound (a leftward shift of the agonist concentration-response curve) is an indication of the degree of mGluR4 potentiation at a given concentration of the sample compound. A decrease in the maximal response of the agonist with increasing concentrations of the sample compounds, with or without a rightward shift in agonist potency, is an indication of the degree of antagonism at mGluR4. The second mode also indicates whether the sample compounds also affect the maximum response to mGluR4 to agonists.

Molecules are shown by their SMILES. Like-named read-outs stand apart in the source and are kept apart here.

Sequence of human mGlu4 (Q14833 33-912): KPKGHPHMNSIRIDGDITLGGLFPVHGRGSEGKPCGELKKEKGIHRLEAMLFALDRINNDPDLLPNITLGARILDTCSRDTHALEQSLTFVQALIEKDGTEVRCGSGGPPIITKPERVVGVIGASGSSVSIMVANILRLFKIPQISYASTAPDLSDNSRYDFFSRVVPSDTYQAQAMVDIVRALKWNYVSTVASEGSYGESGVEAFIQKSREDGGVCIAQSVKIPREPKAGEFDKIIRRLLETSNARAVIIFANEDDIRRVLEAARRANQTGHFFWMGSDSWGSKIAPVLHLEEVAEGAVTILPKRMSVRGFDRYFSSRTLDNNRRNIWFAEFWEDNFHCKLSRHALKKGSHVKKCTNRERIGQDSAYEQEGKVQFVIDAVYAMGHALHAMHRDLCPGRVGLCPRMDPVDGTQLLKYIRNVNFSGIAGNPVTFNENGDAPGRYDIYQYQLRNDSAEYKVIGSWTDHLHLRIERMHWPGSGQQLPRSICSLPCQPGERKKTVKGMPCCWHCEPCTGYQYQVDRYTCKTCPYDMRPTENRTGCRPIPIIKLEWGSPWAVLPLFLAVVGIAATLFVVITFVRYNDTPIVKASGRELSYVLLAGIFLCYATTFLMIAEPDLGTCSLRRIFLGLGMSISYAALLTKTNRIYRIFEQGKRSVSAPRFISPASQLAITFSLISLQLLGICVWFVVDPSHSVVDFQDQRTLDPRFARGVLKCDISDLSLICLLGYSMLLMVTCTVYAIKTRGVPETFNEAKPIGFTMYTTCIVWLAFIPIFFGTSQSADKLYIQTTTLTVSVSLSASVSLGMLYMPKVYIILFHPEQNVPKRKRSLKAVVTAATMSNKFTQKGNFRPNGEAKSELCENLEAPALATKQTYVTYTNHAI

Usually Kp stands for the ratio of the level in a tissue or fluid to that in plasma or blood. Broadly, the EC50 is the concentration at which the effect is half-maximal. `Cn1nc(OC[C@H]2CCOC2)c2ccc(NC(=O)c3ncccc3N)cc21` [drawing 245] came in with a Kp in “Brain-Plasma Kp” of 2.9. For the same compound, on human mGlu4 (read-out: hmGluR4 PAM EC50), the EC50 worked out at 24.2 nM. On the same counts, the results for `Cn1nc(OCC2CCOC2)c2ccc(NC(=O)c3cccc(F)n3)cc21` (stereo not shown) [drawing 251] are 3.35 and 266 nM. Consider `Cn1nc(OC[C@@H]2COCCO2)c2ccc(NC(=O)c3ccccn3)cc21`, for which the partition ratio (Kp) in “Brain-Plasma Kp” amounted to 1.47. Further, at human mGlu4 (read-out: hmGluR4 PAM EC50), the EC50 came to 119 nM. For `Cn1nc(OCC2CCOC2)c2ccc(NC(=O)c3ncccc3N)cc21` (stereo not shown) [drawing 241] the same measures were 3.09 and 75.4 nM. The compound `Cn1nc(OC[C@@H]2CCOC2)c2ccc(NC(=O)c3ncccc3N)cc21` [drawing 244] returned a concentration ratio (Kp) in “Brain-Plasma Kp” of 2.47. Besides, the EC50 on human mGlu4 (read-out: hmGluR4 PAM EC50) amounted to 27.3 nM. On to `Cn1nc(OCC2CCOCC2)c2ncc(NC(=O)c3ccccn3)cc21` [drawing 243], for which, in the data set “Brain-Plasma Kp”, the Kp stood at 1.51. Also, at human mGlu4 (read-out: hmGluR4 PAM EC50), the EC50 was 394 nM. On the same counts, the results for `Cn1nc(OC[C@H]2COCCO2)c2ccc(NC(=O)c3ncccc3N)cc21` [drawing 249] are 1.88 and 58.7 nM.

`Cn1nc(C(=O)NC23CC(F)(C2)C3)c2ccc(NC(=O)c3ccccn3)cc21`: the partition ratio (Kp) in the data set “Brain-Plasma Kp” is 1.43. Further, the EC50 at human mGlu4 (read-out: hmGluR4 PAM EC50) stood at 569 nM.

On to `Cn1nc(OC[C@@H]2CCOC2)c2ncc(NC(=O)c3ncccc3N)cc21` [drawing 246], for which the Kp in “Brain-Plasma Kp” is 1.84. The EC50 on human mGlu4 (read-out: hmGluR4 PAM EC50) turned out to be 120 nM. `Cn1nc(OCC2CCOC2)c2ncc(NC(=O)c3ncccc3N)cc21` (stereo not shown) [drawing 242]: in the data set “Brain-Plasma Kp”, the concentration ratio (Kp) stood at 0.72. At human mGlu4 (read-out: hmGluR4 PAM EC50), the concentration giving a half-maximal response (EC50) is 86.8 nM. Regarding `Cn1nc(OC[C@@H]2COCCO2)c2ccc(NC(=O)c3ncccc3N)cc21` [drawing 248], in “Brain-Plasma Kp”, the Kp is 2.3. Further, the EC50 on human mGlu4 (read-out: hmGluR4 PAM EC50) was 50.1 nM.

The compound `O=C(Nc1ccc2c(OC[C@H]3CCOC3)n[nH]c2c1)c1ccccn1` registered a partition ratio (Kp) in “Brain-Plasma Kp” of 1.42. Besides, on human mGlu4 (read-out: hmGluR4 PAM EC50), the concentration giving a half-maximal response (EC50) stood at 228 nM. Consider `Cn1nc(OCC2CCOC2)c2ccc(NC(=O)c3ncccc3F)cc21` (stereo not shown) [Compound 97], for which, at human mGlu4 (read-out: mGlu4 PAM EC50), the half-maximal effective concentration (EC50) stood at 505 nM. In the case of `Cn1nc(OC2CCS(=O)(=O)CC2)c2ccc(NC(=O)c3ccccn3)cc21` [Compound 39], at human mGlu4 (read-out: mGlu4 PAM EC50), the EC50 turned out to be 417 nM.

For the compound `Cn1nc(OC2COC2)c2ccc(Nc3n[nH]c4cccnc34)cc21` [Compound 22], the EC50 on human mGlu4 (read-out: mGlu4 PAM EC50) stood at 629 nM. The same measure, in the same setting: the result for `Cn1nc(OCC2CCOCC2)c2ccc(NC(=O)c3ccccn3)cc21` [Compound 116] reads 63 nM. With `Cn1nc(C(=O)NC2CC(F)(F)C2)c2ccc(NC(=O)c3ccc(F)cn3)cc21`, in the data set “Brain-Plasma Kp”, the Kp is 1.09. The concentration for a half-maximal effect (EC50) at human mGlu4 (read-out: hmGluR4 PAM EC50) turned out to be 324 nM. As to `COc1nn(C)c2cc(Nc3n[nH]c4cccnc34)cc(Cl)c12` [Compound 26], the concentration for a half-maximal effect (EC50) at human mGlu4 (read-out: mGlu4 PAM EC50) was found to be 707 nM. Still for that read-out and setting: the result for `Cn1nc(OC2CCS(=O)(=O)C2)c2ccc(NC(=O)c3ncccc3N)cc21` (stereo not shown) [Compound 54] reads 117 nM; that for `Cn1nc(OC2CCOC[C@H]2F)c2ccc(NC(=O)c3ccccn3)cc21` (stereo partly shown) [Compound 70], 84.7 nM. Take `Cn1nc(OCCOc2ccccc2F)c2ccc(Nc3n[nH]c4cccnc34)cc21` [Compound 19]: the concentration giving a half-maximal response (EC50) at human mGlu4 (read-out: mGlu4 PAM EC50) came out at 483 nM. `Cn1nc(OC[C@H]2CCOC2)c2ccc(NC(=O)c3ncccc3N)cc21` [Compound 80]: the 50% effective concentration (EC50) on human mGlu4 (read-out: mGlu4 PAM EC50) is 36.9 nM. On the same count and under the same terms, the result for `[2H]C([2H])([2H])n1nc(OCC2CCOC2)c2ccc(NC(=O)c3ccccn3)cc21` (stereo not shown) [Compound 110] reads 50.4 nM; that for `COCCOc1nn(C)c2cc(Nc3n[nH]c4ncccc34)ccc12` [Compound 34], 529 nM. Same read-out and setting: with `Cn1nc(OCC2CCOC2)c2ccc(NC(=O)c3cccc(Cl)n3)cc21` (stereo not shown) [Compound 99] the figure was 820 nM; with `Cn1nc(OCC2CCOC(C)(C)C2)c2ccc(NC(=O)c3ncccc3N)cc21` (stereo not shown) [Compound 105], 127 nM; with `Cn1nc(OCCN2CCOCC2)c2ccc(NC(=O)c3ccccn3)cc21` [Compound 76], 703 nM. Same read-out and setting: with `Cn1nc(OCC2CCOCC2)c2ccc(Nc3n[nH]c4cccnc34)cc21` [Compound 51] the figure was 40.4 nM. In the case of `Cn1nc(Oc2ncccc2C#N)c2ccc(Nc3n[nH]c4cccnc34)cc21` [Compound 15], the concentration for a half-maximal effect (EC50) on human mGlu4 (read-out: mGlu4 PAM EC50) turned out to be 184 nM. With `Cn1nc(OC2CCS(=O)(=O)CC2)c2ccc(NC(=O)c3ncccc3N)cc21` [Compound 113], the concentration for a half-maximal effect (EC50) at human mGlu4 (read-out: mGlu4 PAM EC50) was found to be 142 nM. For `Cc1ccc(C(=O)Nc2ccc3c(OCC4CCOC4)nn(C)c3c2)nc1` (stereo not shown) [Compound 90], the concentration giving a half-maximal response (EC50) on human mGlu4 (read-out: mGlu4 PAM EC50) was determined as 574 nM.

As to `Cn1nc(OC2CCOC(C)(C)C2)c2ccc(Nc3n[nH]c4cccnc34)cc21` (stereo not shown) [Compound 63], at human mGlu4 (read-out: mGlu4 PAM EC50), the EC50 came out at 169 nM.

As to `Cn1nc(C(=O)NC2CCOC2)c2ccc(NC(=O)c3ncccc3N)cc21` (stereo not shown) [Compound 111], at human mGlu4 (read-out: mGlu4 PAM EC50), the EC50 is 421 nM. As to `Cn1nc(OC[C@H]2COCCO2)c2ccc(NC(=O)c3ccccn3)cc21` [Compound 81], the EC50 at human mGlu4 (read-out: mGlu4 PAM EC50) turned out to be 205 nM.

On to `Cn1nc(OCC2CCOCC2)c2ncc(Nc3n[nH]c4cccnc34)cc21` [Compound 61], for which the concentration giving a half-maximal response (EC50) at human mGlu4 (read-out: mGlu4 PAM EC50) stood at 209 nM. Still for that read-out and setting: with `Cn1nc(OCC2CCOC2)c2ccc(Nc3n[nH]c4ncccc34)cc21` (stereo not shown) [Compound 50] the figure was 135 nM; with `Cn1nc(OCC2CC2)c2ccc(Nc3n[nH]c4cccnc34)cc21` [Compound 5], 164 nM; with `Cn1nc(OCC2CCOC2)c2ccc(NC(=O)c3ccccn3)cc21` (stereo not shown) [Compound 114], 81.2 nM. On the same count and under the same terms, the result for `Cn1nc(OCC2COC(C)(C)C2)c2ccc(NC(=O)c3ccc(F)cn3)cc21` (stereo not shown) [Compound 103] reads 297 nM; that for `Cn1nc(OCC2CCOC2)c2ncc(Nc3n[nH]c4cccnc34)cc21` (stereo not shown) [Compound 60], 293 nM; that for `Cn1nc(OC2CCOC2)c2ccc(Nc3n[nH]c4cccnc34)cc21` (stereo not shown) [Compound 28], 726 nM. Consider `Cn1nc(OCC2CCCOC2)c2ccc(Nc3n[nH]c4cccnc34)cc21` (stereo not shown) [Compound 88], for which the half-maximal effective concentration (EC50) on human mGlu4 (read-out: mGlu4 PAM EC50) turned out to be 63.8 nM. In the case of `Cc1cc(COc2nn(C)c3cc(Nc4n[nH]c5cccnc45)ccc23)no1` [Compound 12], on human mGlu4 (read-out: mGlu4 PAM EC50), the 50% effective concentration (EC50) was determined as 203 nM. Same read-out and setting: the result for `Cn1nc(OCC2CCOC2)c2ccc(Nc3n[nH]c4cccnc34)cc21` (stereo not shown) [Compound 49] reads 30.5 nM; that for `Cn1nc(OCC2CCOC2)c2ccc(NC(=O)c3ccc(F)cn3)cc21` (stereo not shown) [Compound 91], 49.6 nM. The same measure, in the same setting: the result for `Cn1nc(OCC2CCOCC2)c2ncc(NC(=O)c3ncccc3N)cc21` [Compound 58] reads 50.5 nM; that for `Cn1nc(OC[C@@H]2CCOC2)c2ncc(NC(=O)c3ncccc3N)cc21` [Compound 83], 120 nM; that for `Cn1nc(Oc2ccc(C#N)cn2)c2ccc(Nc3n[nH]c4cccnc34)cc21` [Compound 11], 157 nM. On to `Cn1nc(OCCOc2ccc(F)cc2)c2ccc(Nc3n[nH]c4cccnc34)cc21` [Compound 18], for which the concentration for a half-maximal effect (EC50) on human mGlu4 (read-out: mGlu4 PAM EC50) was 852 nM. Still for that read-out and setting: with `CC1CC(COc2nn(C)c3cc(NC(=O)c4ccccn4)ccc23)CC(C)O1` (stereo not shown) [Compound 107] the figure was 45.1 nM; with `Cn1nc(OCC2COC2)c2ccc(Nc3n[nH]c4cccnc34)cc21` [Compound 27], 96.4 nM.

As to `[2H]C([2H])(C)Oc1nn(C)c2cc(Nc3n[nH]c4cccnc34)ccc12` [Compound 7], the concentration giving a half-maximal response (EC50) at human mGlu4 (read-out: mGlu4 PAM EC50) was 356 nM.

Consider `CC1CC(COc2nn(C)c3cc(NC(=O)c4ccc(F)cn4)ccc23)CC(C)O1` (stereo not shown) [Compound 109], for which the EC50 on human mGlu4 (read-out: mGlu4 PAM EC50) turned out to be 83.6 nM. `Cn1nc(OCCN2CCOCC2)c2ccc(NC(=O)c3ncccc3N)cc21` [Compound 77]: on human mGlu4 (read-out: mGlu4 PAM EC50), the EC50 came to 133 nM.
